Measured values from US20230263786A1, “MODULATION OF DRUG-DRUG INTERACTIONS OF VADADUSTAT” (Akebia Therapeutics, Inc., priority 2020, published 2023).
Like-named read-outs stand apart in the source and are kept apart here.

Key:
[1] = system: UGT1A1, UGT1A7, UGT1A8 and UGT1A9; test: UGT isoforms generating O-glucuronide in vitro; type: in vitro ADME, human
[2] = Phase I interaction study with statins and sulfasalazine: safety and tolerability; type: in vivo, human; conditions: taken alone or during treatment with rosuvastatin, pravastatin, atorvastatin, or simvastatin
Description: The pharmacokinetic (pK) parameters and safety of said drugs administered alone and in combination with Compound 1 were characterized.
Safety and Tolerability. Subject safety were evaluated throughout the study beginning on Day 1 (Baseline) until 30 days (±2 days) post last dose. The following safety assessments were performed: physical exam, 12-lead ECG (electrocardiogram), vital signs, clinical laboratory results, QuantiFERON®-TB Test, serology, and pregnancy. Adverse events (AE) were summarized.

CYP2C9 = CYP2C9 (Homo sapiens, UniProt P11712); test: CYP2C9 inhibition in vitro; type: in vitro ADME
hemoglobin = test: Phase III clinical trial in patients with hemodialysis anemia; type: in vivo, human
Description: The incidence of adverse reactions when this drug was administered up to 24 weeks was 8.3% (2/24 cases).

erythropoietin = test: Blood erythropoietin concentration increasing action; type: in vivo; conditions: normal rat, single oral administration
human PHD3 = human PHD3 (Homo sapiens, UniProt Q9H6Z9); test: PHD inhibitory action, PHD3; type: biochemical; conditions: in vitro
[3] = [14C]-labeled Compound 1 650 mg metabolism and excretion; type: in vivo, human
Excerpt: Compound 1 is metabolized via UGT, mainly producing O-glucuronide conjugates.
The urinary excretion rate of this drug and acyl glucuronide is less than 1% of the total radioactivity.

[4] = Plasma protein binding, equilibrium dialysis; type: in vitro ADME; conditions: human, in vitro, read-out: human plasma protein binding rate
Excerpt: The human plasma protein binding rate of this drug was higher than 99% (in vitro, equilibrium dialysis).

[5] = Phase 1 oral iron interaction study, Cohort 1 (after meal): sodium ferrous citrate, ferric citrate hydrate; type: in vivo, human; conditions: for AUC(0-inf) / AUC(0-t) / Cmax / half-life: male, human, plasma, oral; for AUC(0-inf): read-out: AUC(0-inf), LS geometric mean; for AUC(0-t): read-out: AUC(0-last), LS geometric mean; for Cmax: read-out: Cmax, LS geometric mean; for half-life: read-out: t1/2, LS geometric mean (converted)
Excerpt: The study included 3 periods as follow: • Screening: performed within 4 weeks before the day of administration of the study drug. • Evaluation period: Cohort 1 was confined to the study site for 10-night, 11-day. Cohort 2 and Cohort 3 were confined to the study site for 7 nights and 8 days. • Post-administration tests: performed 3 days after administration of the last dose of the study drug.
In Cohort 1, 21 subjects were further randomized into 3 groups (7 subjects per group) and the evaluation period was divided into 3 periods during the study:
(§1) Administration of vadadustat tablets alone: after fasting for at least 10 hours, subjects would eat breakfast over a period of 10 minutes, then immediately after finishing the meal (5 minutes after finishing the meal), 1 vadadustat tablet (150 mg) would be taken orally with 200 mL of water (extra water may be drunk if more is needed when taking the tablet, and the extra volume would be recorded). After breakfast, subjects would fast until the end of the collection of blood samples at 4 hours after administration of the study drug. Subjects would eat lunch over a period of 20 minutes after blood samples were collected at 4 hours after administration of the study drug. After lunch, subjects would fast until dinner, when they would eat dinner over a period of 20 minutes at 10 hours after administration of the study drug. Subjects would fast from dinner until breakfast the next morning.
as §1, with “and sodium ferrous citrate:” for “alone:”, “mg) and 4 tablets of sodium ferrous citrate (containing 200 mg of iron)” for “mg)”, “tablets,” for “tablet,”
Administration of vadadustat tablets and ferric citrate hydrate: after fasting for at least 10 hours, subjects would eat breakfast over a period of 10 minutes, then immediately after finishing the meal (5 minutes after finishing the meal), 1 vadadustat tablet (150 mg) and 8 tablets of ferric citrate hydrate (containing 2000 mg of ferric citrate) would be taken orally with 200 mL of water (extra water may be drunk if more is needed when taking the tablets, and the extra volume will be recorded). After breakfast, subjects would fast until the end of the collection of blood samples at 4 hours after administration of the study drug. After collection of blood samples at 4 hours after administration of the study drug, subjects would eat lunch over a period of 20 minutes, then immediately after finishing the meal, 8 tablets of ferric citrate hydrate (containing 2000 mg of ferric citrate) would be taken orally with 200 mL of water (extra water may be drunk if more is needed when taking the tablet, and the extra volume would be recorded). Subjects would fast from lunch to before dinner, and at 10 hours after administration of the study drug, subjects will eat dinner over a period of 20 minutes, then immediately after finishing the meal, 8 tablets of ferric citrate hydrate (containing 2000 mg of ferric citrate) would be taken orally with 200 mL of water (extra water may be drunk if more is needed when taking the tablets, and the extra volume would be recorded). Subjects would fast from dinner until breakfast the next morning.

[6] = Phase I ferrous sulfate tablet interaction study;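 note: crossover in fasted human subjects with four-day washout between periods, plasma glucuronide metabolite pharmacokinetics, ratios computed as metabolite over parent for AUC and Cmax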
Description: (§2) Pharmacokinetics. […] The ratio of metabolite to parent was calculated for each glucuronide metabolite for AUC(0-t); and AUC(0-inf) and Cmax.
(§3) Comparative Bioavailability. […] Factors incorporated in the model included: Sequence, Subject (Sequence), Period, and Treatment.
(§4) Treatment of Subjects. […] All subjects are dosed on the same day for Day 1 of Confinement Period 1, and are crossed over to the alternate treatment and are dosed on the same day for Day 1 of Confinement Period 2. Both treatments are administered in a fasted state, and a four-day Washout Period separates each Confinement Period.

clinical = conditions: male, human, plasma, oral, 450 mg
Description: as §2, §3, §4

[7] = 150 mg with ferric citrate hydrate (2000 mg ferric citrate)
[8] = 150 mg with sodium ferrous citrate (200 mg iron)
[9] = 150 mg, Compound 1 150 mg alone
[10] = Compound 1+Iron compared to Compound 1 alone

Chain of human PHD3 (Q9H6Z9 whole entry): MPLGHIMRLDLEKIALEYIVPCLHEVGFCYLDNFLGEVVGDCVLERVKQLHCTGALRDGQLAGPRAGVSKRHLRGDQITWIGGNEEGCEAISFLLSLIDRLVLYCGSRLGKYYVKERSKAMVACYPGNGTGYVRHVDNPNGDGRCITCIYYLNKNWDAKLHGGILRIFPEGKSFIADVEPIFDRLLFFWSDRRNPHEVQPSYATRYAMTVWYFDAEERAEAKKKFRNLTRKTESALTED
Chain of CYP2C9 (P11712 whole entry): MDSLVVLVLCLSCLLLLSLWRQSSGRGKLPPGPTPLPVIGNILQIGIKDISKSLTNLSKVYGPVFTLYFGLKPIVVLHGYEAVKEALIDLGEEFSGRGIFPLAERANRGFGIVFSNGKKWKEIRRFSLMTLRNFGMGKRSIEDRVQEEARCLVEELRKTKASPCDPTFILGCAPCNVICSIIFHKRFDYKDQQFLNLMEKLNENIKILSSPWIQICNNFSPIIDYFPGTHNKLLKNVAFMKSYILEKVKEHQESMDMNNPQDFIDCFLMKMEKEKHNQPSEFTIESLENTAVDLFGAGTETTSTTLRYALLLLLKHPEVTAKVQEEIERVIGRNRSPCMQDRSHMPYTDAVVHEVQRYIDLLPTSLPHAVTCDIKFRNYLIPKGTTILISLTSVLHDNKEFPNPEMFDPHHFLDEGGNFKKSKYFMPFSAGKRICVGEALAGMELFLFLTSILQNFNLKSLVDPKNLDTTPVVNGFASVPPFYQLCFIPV

Which “UGT isoforms involved in the generation of O-glucuronide” value [1] does the source give for `O=C(O)CNC(=O)c1ncc(-c2cccc(Cl)c2)cc1O` [Compound 1, {[5-(3-chlorophenyl)-3-hydroxypyridine-2-carbonyl]amino}acetic acid] here?
The value was “UGT1A1, UGT1A7, UGT1A8 and UGT1A9”.

And the tolerability [2]?
Its tolerability is “well tolerated”.

And the “inhibitory effect on CYP2C9” value (CYP2C9)?
Its value is “inhibitory effect”.

And the “incidence of adverse reactions” value (hemoglobin; administered up to 24 weeks)?
The value was 8.3%.

What about the “Average hemoglobin level, After administration” value (hemoglobin; at 20 and 24 weeks, 150-600 mg once daily, adjusted average ± standard error) of the same compound?
Its value is 10.75 ± 0.19.

And the “Average hemoglobin level, Before administration” value (hemoglobin; hemodialysis anemia patients, baseline, mean ± standard deviation)?
Its value is 9.30 ± 0.67.

What about the blood erythropoietin levels (erythropoietin) of the same compound?
The blood erythropoietin levels was “elevated”.

And the IC50 (human PHD3)?
The IC50 was 7.63 nM.

What about the “total radioactivity administered found in urine” value ([3]; single 650 mg [14C]-labeled, by 72 hours after administration) of the same compound?
Its value is 58.9%.

And the “share of the total radioactivity (AUC0-∞) in plasma” value ([3]; single oral 650 mg [14C]-labeled Compound 1, healthy adult males)?
Its value is 75%.

What about the fraction unbound [4] of the same compound?
The fraction unbound was under 0.01.

What about the “Kel, LS geometric mean” value [5, 7] of the same compound?
Its value is 0.16 h⁻¹.

What about the “Kel, LS geometric mean” value [5, 8] of the same compound?
Its value is 0.13 h⁻¹.

And the “Kel, LS geometric mean” value ([5]; Compound 1 150 mg alone)?
The value was 0.13 h⁻¹.

And the AUC(0-inf) [5, 7]?
The AUC(0-inf) was 32400 ng·h/mL.

What about the AUC(0-t) [5, 7] of the same compound?
Its AUC(0-t) is 31100 ng·h/mL.

What about the Cmax [5, 7] of the same compound?
Its Cmax is 5180 ng/mL.

What about the half-life [5, 7] of the same compound?
Its half-life is 4.26 h.

And the AUC(0-inf) [5, 8]?
Its AUC(0-inf) is 46600 ng·h/mL.

What about the AUC(0-t) [5, 8] of the same compound?
Its AUC(0-t) is 44400 ng·h/mL.

What about the Cmax [5, 8] of the same compound?
Its Cmax is 6960 ng/mL.

What about the half-life [5, 8] of the same compound?
Its half-life is 5.34 h.

And the AUC(0-inf) [5, 9]?
Its AUC(0-inf) is 104000 ng·h/mL.

And the AUC(0-t) [5, 9]?
The AUC(0-t) was 99200 ng·h/mL.

What about the Cmax [5, 9] of the same compound?
Its Cmax is 14300 ng/mL.

And the half-life [5, 9]?
The half-life was 5.32 h.

What about the “lowering of Cmax” value [6, 10] of the same compound?
The value was “approximately 51%”.

What about the “lowering of mean plasma AUC (AUC0-t and AUC0-inf)” value [6, 10] of the same compound?
Its value is “approximately 54%”.

And the “AEs, SAEs, deaths” value ([6]; single 450 mg dose with or without ferrous sulfate)?
Its value is “no AEs, SAEs, or deaths”.

What about the AUC(0-inf) (clinical) of the same compound?
Its AUC(0-inf) is 263000 ng·h/mL.

What about the AUC(0-t) (clinical) of the same compound?
Its AUC(0-t) is 253000 ng·h/mL.

What about the Cmax (clinical) of the same compound?
The Cmax was 45300 ng/mL.

What about the Tmax (clinical) of the same compound?
The Tmax was 3 h.
